How the values were obtained:
Assay in all cases: combination Emax (second highest fraction inhibited in the dose matrix, 72 h); higher = more inhibition; extreme values may be limits of the assay
[1] = system: NCI-H1563 (Lung Adenocarcinoma)
In short: (§1)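 Cell lines grown in DMEM/F12 or RPMI with 10% FBS were plated in 1536-well plates and held 24 hours at 37°C, 5% CO2 before 72 hours of exposure to two-drug dose matrices, with DMSO typically at 0.2%. CellTiter-Glo 2.0 luminescence gave viability, which was converted to inhibition. Vehicle wells were set to 0 and blank wells to 1. Combination Emax is the second-highest inhibition in the matrix, and Bliss excess is the observed combination effect minus the expected EA + EB − EA·EB, where EA and EB are the single-agent effects.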

[2] = system: RERF-LC-KJ (Lung Adenocarcinoma)
In short: as §1

[3] = system: JHH-1 (Hepatocellular Carcinoma)
In short: as §1

[4] = system: SNU-175 (Colorectal Carcinoma)
In short: as §1

[5] = system: LOUCY (T-Lymphoblastic Leukemia)
In short: as §1

[6] = system: Becker (Low Grade Glioma)
In short: as §1

[7] = system: HTC-C3 (Thyroid Gland Carcinoma)
In short: as §1

[8] = system: PANC-02-03 (Pancreatic Carcinoma)
In short: as §1

[9] = system: SJRH30 (Rhabdomyosarcoma)
In short: as §1

[10] = system: NCI-H810 (Non-Small Cell Lung Carcinoma)
In short: as §1

[11] = system: EB-3 (Burkitt's Lymphoma)
In short: as §1

[12] = system: Calu-6 (Non-Small Cell Lung Carcinoma)
In short: as §1

[13] = system: LAMA-84 (Chronic Myelogenous Leukemia)
In short: as §1

[14] = system: BALL-1 (B-Lymphoblastic Leukemia)
In short: as §1

[15] = system: RPMI-8866 (Chronic Myelogenous Leukemia)
In short: as §1

[16] = system: AN3-CA (Endometrial Carcinoma)
In short: as §1

786-0 (Kidney Carcinoma) = system: 786-0 (Kidney Carcinoma)
In short: as §1

[17] = system: Caov-3 (Ovarian Carcinoma)
In short: as §1

[18] = system: RMG-I (Ovarian Carcinoma)
In short: as §1

[19] = system: KYSE-70 (Esophageal Squamous Cell Carcinoma)
In short: as §1

| Compound | combination Emax [1] | combination Emax [2] | combination Emax [3] | combination Emax [4] | combination Emax [5] | combination Emax [6] | combination Emax [7] | combination Emax [8] | combination Emax [9] | combination Emax [10] | combination Emax [11] | combination Emax [12] | combination Emax [13] | combination Emax [14] | combination Emax [15] | combination Emax [16] | combination Emax (786-0 (Kidney Carcinoma)) | combination Emax [17] | combination Emax [18] | combination Emax [19] |
| --- | --- | --- | --- | --- | --- | --- | --- | --- | --- | --- | --- | --- | --- | --- | --- | --- | --- | --- | --- | --- |
| Cc1c2c(nn1C)CSCc1cc(n(C)n1)CSc1cc(c3ccccc3c1)OCCCc1c(C(=O)O)n(C)c3c-2c(Cl)ccc13 [AZD5991] + C1CN(CCC1(C(=O)N[C@@H](CCO)C2=CC=C(C=C2)Cl)N)C3=NC=NC4=C3C=CN4 [Capivasertib] (first compound max 1 µM, 7x7, partner max 3 µM) | 0.774 | 0.495 | 0.373 | 0.492 | 0.926 | 0.308 | 0.179 | 0.179 | 0.669 | 0.286 | 0.299 | 0.192 | 0.189 | 0.65 | 0.52 | 0.951 | 0.44 | 0.307 | 0.236 | 0.246 |
| CC1(C)CCC(CN2CCN(c3ccc(C(=O)NS(=O)(=O)c4ccc(NCC5CCOCC5)c([N+](=O)[O-])c4)c(Oc4cnc5[nH]ccc5c4)c3)CC2)=C(c2ccc(Cl)cc2)C1 [Venetoclax] + COc1cc(Nc2ncc3c(n2)-c2ccc(Cl)cc2C(c2c(F)cccc2OC)=NC3)ccc1C(=O)O [Alisertib] (first compound max 1 µM, 7x7, partner max 10 µM) | 0.466 | 0.48 | 0.567 | 0.818 | 1 | 0.547 | 0.365 | 0.292 | 0.423 | 0.53 | 0.418 | 0.584 | 0.934 | 1 | 0.89 | 0.9 | 0.37 | 0.838 | 0.371 | 0.392 |
| CC(=O)Nc1cccc(-n2c(=O)n(C3CC3)c(=O)c3c(Nc4ccc(I)cc4F)n(C)c(=O)c(C)c32)c1 [Trametinib] + Cc1nc(-c2cn3c(n2)-c2ccc(-c4cnn(C(C)(C)C(N)=O)c4)cc2OCC3)n(C(C)C)n1 [Taselisib] (first compound max 1 µM, 7x7, partner max 10 µM) | 0.793 | 0.727 | 1 | 0.627 | 0.527 | 0.678 | 0.744 | 0.939 | 0.947 | 0.121 | 0.373 | 0.987 | 1 | 0.532 | 0.71 | 0.997 | 0.613 | 0.836 | 0.485 | 0.804 |
| CN(CCO)CC[C@H](CSc1ccccc1)Nc1ccc(S(=O)(=O)NC(=O)c2ccc(N3CCC([C@@H](O)c4ccccc4-c4ccc(Cl)cc4)CC3)cc2)cc1S(=O)(=O)C(F)(F)F [AZD4320] + Cn1cnc2c(F)c(Nc3ccc(Br)cc3Cl)c(C(=O)NOCCO)cc21 [Selumetinib] (first compound max 1 µM, 7x7, partner max 3 µM) | 0.198 | 0.298 | 0.8 | 0.865 | 1 | 0.259 | 0.707 | 0.55 | 0.487 | 0.615 | 0.393 | 0.837 | 0.99 | 1 | 0.854 | 0.693 | 0.307 | 0.803 | 0.912 | 0.229 |
| COc1cccc(OCCCN)c1-c1cc(Nc2cnc(C#N)cn2)n[nH]1 [Prexasertib] + CN(C)CCCOc1ccc(-c2ccc3ncc4c(c3c2)n(C2CCOCC2)c(=O)n4C)cn1 [AZD0156] (first compound max 1 µM, 7x7, partner max 1 µM) | 0.352 | 0.349 | 0.677 | 0.632 | 1 | 0.711 | 0.768 | 0.609 | 0.94 | 0.877 | 0.838 | 0.745 | 0.988 | 0.999 | 1 | 0.81 | 0.861 | 0.806 | 0.698 | 0.618 |
| Cc1cc2ncnn2cc1Nc1ncc2c(n1)n(C1CCOCC1)c(=O)n2C [AZD7648] + CN(C)CCCOc1ccc(-c2ccc3ncc4c(c3c2)n(C2CCOCC2)c(=O)n4C)cn1 [AZD0156] (first compound max 10 µM, 7x7, partner max 1 µM) | 0.49 | 0.314 | 0.207 | 0.173 | 0.604 | 0.184 | 0.161 | 0.236 | 0.165 | 0.287 | 0.585 | 0.381 | 0.202 | 0.295 | 0.638 | 0.321 | 0.18 | 0.366 | 0.431 | 0.211 |
| CN(CCO)CC[C@H](CSc1ccccc1)Nc1ccc(S(=O)(=O)NC(=O)c2ccc(N3CCC([C@@H](O)c4ccccc4-c4ccc(Cl)cc4)CC3)cc2)cc1S(=O)(=O)C(F)(F)F [AZD4320] + C1CN(CCC1(C(=O)N[C@@H](CCO)C2=CC=C(C=C2)Cl)N)C3=NC=NC4=C3C=CN4 [Capivasertib] (first compound max 1 µM, 7x7, partner max 3 µM) | 0.389 | 0.293 | 0.355 | 0.501 | 1 | 0.298 | 0.207 | 0.0923 | 0.427 | 0.482 | 0.191 | 0.448 | 0.696 | 1 | 0.641 | 0.625 | 0.402 | 0.363 | 0.708 | 0.167 |
| Cc1cc2ncnn2cc1Nc1ncc2c(n1)n(C1CCOCC1)c(=O)n2C [AZD7648] + C=CCn1c(=O)c2cnc(Nc3ccc(N4CCN(C)CC4)cc3)nc2n1-c1cccc(C(C)(C)O)n1 [AZD1775] (first compound max 10 µM, partner max 1 µM) | 0.629 | 0.345 | 0.433 | 0.53 | 1 | 0.311 | 0.383 | 0.515 | 0.833 | 0.881 | 0.667 | 0.779 | 0.953 | 0.983 | 0.971 | 0.465 | 0.595 | 0.727 | 0.471 | 0.566 |
| Cc1cc2ncnn2cc1Nc1ncc2c(n1)n(C1CCOCC1)c(=O)n2C [AZD7648] + O=C(c1cc(Cc2n[nH]c(=O)c3ccccc23)ccc1F)N1CCN(C(=O)C2CC2)CC1 [Olaparib] (first compound max 10 µM, 7x7, partner max 10 µM) | 0.331 | 0.241 | 0.105 | 0.0944 | 0.444 | 0.12 | 0.214 | 0.147 | 0.0648 | 0.193 | 0.377 | 0.355 | 0.17 | 0.826 | 0.594 | 0.304 | 0.101 | 0.28 | 0.192 | 0.124 |
| CC1(C)CCC(CN2CCN(c3ccc(C(=O)NS(=O)(=O)c4ccc(NCC5CCOCC5)c([N+](=O)[O-])c4)c(Oc4cnc5[nH]ccc5c4)c3)CC2)=C(c2ccc(Cl)cc2)C1 [Venetoclax] + C1CN(CCC1(C(=O)N[C@@H](CCO)C2=CC=C(C=C2)Cl)N)C3=NC=NC4=C3C=CN4 [Capivasertib] (first compound max 1 µM, 7x7, partner max 3 µM) | 0.396 | 0.377 | 0.115 | 0.162 | 1 | 0.359 | 0.163 | 0.189 | 0.387 | 0.113 | 0.176 | 0.111 | 0.371 | 1 | 0.292 | 0.653 | 0.37 | 0.553 | 0.242 | 0.234 |
| CC1(C)CCC(CN2CCN(c3ccc(C(=O)NS(=O)(=O)c4ccc(NCC5CCOCC5)c([N+](=O)[O-])c4)c(Oc4cnc5[nH]ccc5c4)c3)CC2)=C(c2ccc(Cl)cc2)C1 [Venetoclax] + Cn1cnc2c(F)c(Nc3ccc(Br)cc3Cl)c(C(=O)NOCCO)cc21 [Selumetinib] (first compound max 1 µM, 7x7, partner max 3 µM) | 0.242 | 0.185 | 0.272 | 0.313 | 1 | 0.215 | 0.508 | 0.367 | 0.1 | 0.0631 | 0.154 | 0.431 | 0.707 | 1 | 0.293 | 0.204 | 0.16 | 0.603 | 0.267 | 0.19 |
| CN(CCO)CC[C@H](CSc1ccccc1)Nc1ccc(S(=O)(=O)NC(=O)c2ccc(N3CCC([C@@H](O)c4ccccc4-c4ccc(Cl)cc4)CC3)cc2)cc1S(=O)(=O)C(F)(F)F [AZD4320] + CN(C)CCCOc1ccc(-c2ccc3ncc4c(c3c2)n(C2CCOCC2)c(=O)n4C)cn1 [AZD0156] (first compound max 1 µM, 7x7, partner max 1 µM) | 0.321 | 0.267 | 0.444 | 0.467 | 1 | 0.0869 | 0.37 | 0.138 | 0.147 | 0.453 | 0.387 | 0.395 | 0.667 | 1 | 0.552 | 0.27 | 0.0619 | 0.541 | 0.79 | 0.115 |
